According to PubChem BioAssay (NCI):
Several values for one entry are separate records, joined by “and”; a condition that tells them apart may be missing. Equal entries are not always repeated.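 Cultured in 96-well plates, cells were exposed to test compound for 48 hours across five concentrations. Here, GI50 denotes the concentration required for 50% inhibition of growth. TGI: concentration producing complete growth inhibition.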

Key:
Test in all cases: growth of human tumour cells (NCI), 48 h
CAKI-1 renal = system: CAKI-1 renal
CCRF-CEM leukemia = system: CCRF-CEM leukemia
COLO 205 colon = system: COLO 205 colon
HOP-62 NSCLC = system: HOP-62 NSCLC
KM12 colon = system: KM12 colon
MOLT-4 leukemia = system: MOLT-4 leukemia
OVCAR-3 ovarian = system: OVCAR-3 ovarian
OVCAR-4 ovarian = system: OVCAR-4 ovarian
SR leukemia = system: SR leukemia
UO-31 renal = system: UO-31 renal

SMILES | GI50 (CAKI-1 renal) | TGI (CAKI-1 renal) | GI50 (CCRF-CEM leukemia) | TGI (CCRF-CEM leukemia) | GI50 (COLO 205 colon) | TGI (COLO 205 colon) | GI50 (HOP-62 NSCLC) | TGI (HOP-62 NSCLC) | GI50 (KM12 colon) | TGI (KM12 colon) | GI50 (MOLT-4 leukemia) | TGI (MOLT-4 leukemia) | GI50 (OVCAR-3 ovarian) | TGI (OVCAR-3 ovarian) | GI50 (OVCAR-4 ovarian) | TGI (OVCAR-4 ovarian) | GI50 (SR leukemia) | TGI (SR leukemia) | GI50 (UO-31 renal) | TGI (UO-31 renal)
CC(C)(C)N1CC(OC(N)=O)C1 | > 100 µM | > 100 µM | > 100 µM | > 100 µM | > 100 µM | > 100 µM | > 100 µM | > 100 µM | > 100 µM | > 100 µM | > 100 µM | > 100 µM | > 100 µM | > 100 µM | > 100 µM | > 100 µM | > 100 µM | > 100 µM | > 100 µM | > 100 µM
COc1cc2c(Nc3ccc(Br)cc3F)ncnc2cc1OCC1CCN(C)CC1 | 0.729 µM and 1.28 µM | 5.24 µM and > 10 µM | 4.71 µM and > 10 µM | 17.5 µM and > 10 µM | 3.6 µM and 4.33 µM | 9.88 µM and > 10 µM | 3.24 µM and 5.81 µM | 14.6 µM and > 10 µM | 8.94 µM and > 10 µM | 21.4 µM and > 10 µM | 3.97 µM and 9.42 µM | 15.5 µM and > 10 µM | 1.65 µM and 2.58 µM | 14.2 µM and > 10 µM | 2.92 µM and 5.59 µM | 14.8 µM and > 10 µM | 2.55 µM and 2.89 µM | 8.29 µM and > 10 µM | 0.573 µM and 0.479 µM | 2.5 µM and 5.78 µM
C[C@@H](Oc1cc(NS(=O)(=O)N2CCC2)nc(SCc2cccc(F)c2F)n1)[C@@H](O)CO | > 100 µM | > 100 µM | > 100 µM | > 100 µM | > 100 µM | > 100 µM | > 100 µM | > 100 µM | > 100 µM | > 100 µM | > 100 µM | > 100 µM | > 100 µM | > 100 µM | > 100 µM | > 100 µM | > 100 µM | > 100 µM | > 100 µM | > 100 µM
